In patent US20120191039A1, “CARRIER LINKED PRAMIPEXOLE PRODRUGS” (ASCENDIS PHARMA A/S, priority 2009, published 2012):
Read-outs that look alike come from different tables or passages of the source.

Columns and labels:
[1] = Release kinetics in vitro: hydrolysis in buffer at pH 7.4 and 37° C.; type: physicochemical; conditions: sodium phosphate buffer; half time of release, 60 mM sodium phosphate, 3 mM EDTA, 0.01% Tween20, pH 7.4, 37° C.; read-out: t1/2 buffer A (pH 7.4) (converted)
Experimental: In vitro release sample was vortexed and centrifuged. An aliquot was taken from the supernatant, diluted with eluent (20 mM phosphate buffer pH 7.4, 150 mM NaCl) and assayed for pramipexole content by SEC as described above.
Release of drug molecule was effected by hydrolysis in buffer at pH 7.4 and 37° C.
9a, 9b, 9c, 9d, 9e, 11b, 20, 21, 22b, 23, 24b, 33, and 35 respectively, were dissolved in buffer (60 mM sodium phosphate, 3 mM EDTA, 0.01% Tween20, pH 7.4), solution was filtered through a 0.2 μm filter and incubated at 37° C. Samples were taken at time intervals and analyzed by RP-HPLC at 263 nm and 280 nm and ESI-MS. UV-signals correlating to linker conjugate molecules were integrated and plotted against incubation time. Curve-fitting software was applied to estimate the corresponding half time of release
16a, 16b, 26, 30, and 31 respectively, were suspended in buffer (60 mM sodium phosphate, 3 mM EDTA, 0.01% Tween20, pH 7.4) and incubated at 37° C. At time intervals samples were vortexed and centrifuged. Aliquots (10-50 μL) were taken from the supernatant solution, and analyzed by measurement of the absorption of released drug at 263 nm. Calculated amounts of released drug were plotted against incubation time. Alternatively, amount of released pramipexole was determined by size exclusion chromatography as described in “Materials and Methods”.
Curve-fitting software was applied to estimate the corresponding half time of release.

[2] = cited from earlier work

Which half-life [1] does the source give for `CCCN[C@H]1CCc2nc(NC(=O)CCC(=O)NCCSC3CC(=O)N(CCC(=O)NCCOCCOCCOCCOCCOCCOCCC(=O)NCC(N)=O)C3=O)sc2C1` (some centres unmarked) [Compound 9a] here?
Its half-life is 28.8 h.

With `CCCN[C@H]1CCc2nc(NC(=O)CCC(=O)NCCCCCCSC3CC(=O)N(CCC(=O)NCCOCCOCCOCCOCCOCCOCCC(=O)NCC(N)=O)C3=O)sc2C1` (some centres unmarked) [Compound 9b] as the molecule, how does the half-life [1] read?
Its half-life is 88.8 h.

With `CCCN[C@H]1CCc2nc(NC(=O)COCC(=O)NCCCCCCSC3CC(=O)N(CCC(=O)NCCOCCOCCOCCOCCOCCOCCC(=O)NCC(N)=O)C3=O)sc2C1` (some centres unmarked) [Compound 9c] as the molecule, how does the half-life [1] read?
Its half-life is 31.2 h.

For `CCCN[C@H]1CCc2nc(NC(=O)CNCC(=O)NCCCCCCSC3CC(=O)N(CCC(=O)NCCOCCOCCOCCOCCOCCOCCC(=O)NCC(N)=O)C3=O)sc2C1` (some centres unmarked) [Compound 9d], which half-life [1] is on record?
Its half-life is 26.4 h.

For `CCCN[C@H]1CCc2nc(NC(=O)CNC(=O)NCCCCCCSC3CC(=O)N(CCC(=O)NCCOCCOCCOCCOCCOCCOCCC(=O)NCC(N)=O)C3=O)sc2C1` (some centres unmarked) [Compound 9e], which half-life [1] is on record?
Its half-life is 103 h.

Which elimination half life ([2]; healthy subjects) does the source give for `CCCN[C@H]1CCc2nc(N)sc2C1` [Pramipexole] here?
Its elimination half life is 8 h.

What about the excretion ([2]; in vivo) of the same molecule?
Its excretion is “mainly renal”.

What about the metabolism ([2]; in vivo) of the same molecule?
Its metabolism is “negligible metabolism”.

And the protein bound ([2]; in vivo)?
Its protein bound is “Fifteen”.

And the volume of distribution ([2]; in vivo)?
The volume of distribution was 7 L/kg.

What about the absorption ([2]; oral administration) of the same molecule?
The absorption was “rapidly and completely absorbed”.

And the “time to maximum plasma concentration” value ([2]; oral, empty stomach)?
The value was 1 to 2 h.

What about the “time to maximum plasma concentration” value ([2]; oral, with food) of the same molecule?
The value was 3 to 4 h.

And the Oral bioavailability ([2]; oral)?
Its Oral bioavailability is “over 90%”.
